From US9822144B2, “Benzodiazepine dimers, conjugates thereof, and methods of making and using” (priority 2015, dated 2017)

Key:
Type in all cases: cell-based
[1] = tested on: N87 gastric cancer cell line; assay: Cytotoxic activity of dimers, ATP luminescence or MTS cell proliferation assay; settings: N87 gastric cancer cells, 72 h
Procedure: (§1) The cytotoxic activity of dimers of this invention was tested against H226 lung cancer, 786-O renal cancer, N87 gastric cancer, and/or OVCAR3 ovarian cancer cell lines. The ability of dimers to inhibit cell proliferation can be measured by either an ATP luminescence assay or an MTS cell proliferation assay.
(§2) This is a general procedure for an ATP luminescence assay: Cells are seeded at 1×10^3 cells/well in 96-well plates for 3 h for ATP CellTiterGlo™ assays, respectively. Serial dilutions (1:3) of compounds are added to the wells. Plates are allowed to incubate for 72 h. A CellTiterGlo™ cell viability kit from Promega is used to measure ATP content of cells treated with test compounds following manufacturer's instruction. A decrease in the ATP content is a measure of decrease in cellular viability. The EC50 value—the concentration at which an agent reduces cell viability by 50% of the maximum effect—can be calculated using PRISM™ software, version 5.0 (GraphPad Software, La Jolla, Calif., USA).
(§3) The MTS cell proliferation assay was performed as follows: CellTiter 96 Aqueous Non-Radioactive Cell proliferation Kit from Promega (Madison, Wis.) is used to determine the number of viable cells in cell proliferation assay. Tumor cells are plated at certain seeding densities in sterile 384-well black clear bottom Matrix plates at 40 μL per well and incubated overnight at 37° C. in 5% CO2 before assaying. On the next day, one set of cell plates (10 plates) is used to determine time zero cell density, and 3-(4,5-dimethylthiazol-2-yl)-5-(3-carboxymethoxyphenyl)-2-(4-sulfophenyl)-2H-tetrazolium is added at 4 μL/well into 10 plates followed by incubation at 37° C. in 5% CO2 for three hours. This tetrazolium reagent is bioreduced by […] to form a formazan product which is soluble in aqueous solution. Absorbance at 490 nm is measured on an Envision reader (Perkin Elmer, Boston, Mass.). On the same day, compounds are added into remaining cell plates (T72 plates) and incubated at 37° C. in 5% CO2. After 72 hours, 4 μL MTS reagents are then added into those cell plates. The plates are further incubated at 37° C. in 5% CO2 for three hours and the absorbance values at A490 were measured on an Envision reader.

[2] = tested on: H226 lung cancer cell line; assay: as above; settings: 72 h
Procedure: as §1, §2, §3

[3] = tested on: OVCAR3 ovarian cancer cell line; assay: as above; settings: 72 h
Procedure: as §1, §2, §3

[4] = tested on: DMS 79 small-cell lung cancer cell line; assay: Activity of dimers against small-cell lung cancer cell line (Table IB); settings: Homo sapiens, DMS 79 small-cell lung cancer cells
[5] = tested on: H187 small-cell lung cancer cell line; assay: as above; settings: Homo sapiens, NCI-H187, H187 small-cell lung cancer cells
[6] = Homo sapiens, NCI-H226, H226 lung cancer cells
[7] = Homo sapiens, OVCAR-3, OVCAR3 ovarian cancer cells

| SMILES | EC50 [1] [pM] | EC50 [2, 6] [pM] | EC50 [3, 7] [pM] | also measured |
| --- | --- | --- | --- | --- |
| COc1cc2c(cc1OCCNCCOc1cc3c(cc1OC)C(=O)N1Cc4ccccc4C[C@H]1CN3)N=C[C@@H]1Cc3ccccc3CN1C2=O [IIa-20] | 1300 |  |  |  |
| COc1cc2c(cc1OCCCCCOc1cc3c(cc1OC)C(=O)N1Cc4cc(N)ccc4C[C@H]1C=N3)N=C[C@@H]1Cc3ccccc3CN1C2=O [IIa-10] | 30 | 20 | 20 |  |
| COc1cc2c(cc1OCCCCCOc1cc3c(cc1OC)C(=O)N1c4ccncc4C[C@H]1C=N3)N=C[C@@H]1Cc3ccccc3CN1C2=O [IIc-01] | 280 |  |  |  |
| COc1cc2c(cc1OCCCCCOc1cc3c(cc1OC)C(=O)N1Cc4ccccc4C[C@H]1C=N3)N=C[C@@H]1Cc3ccccc3CN1C2=O [IIa-02] | 49 to 150 |  |  | EC50 ([2]; H226 lung cancer cells): 46 to 180 pM; EC50 ([3]; OVCAR3 ovarian cancer cells): 77 to 120 pM |
| COc1cc2c(cc1OCC(N)COc1cc3c(cc1OC)C(=O)N1Cc4ccccc4C[C@H]1C=N3)N=C[C@@H]1Cc3ccccc3CN1C2=O [IIa-18] |  |  |  | EC50 ([2]; H226 lung cancer cells): 3200 pM |
| COc1cc2c(cc1OCCCOc1cc3c(cc1OC)C(=O)N1Cc4ccccc4C[C@H]1CN3)NC[C@@H]1Cc3ccccc3CN1C2=O [IIa-04] | 5700 | 8000 | 2600 |  |
| COc1cc2c(cc1OCCCOc1cc3c(cc1OC)C(=O)N1Cc4ccccc4C[C@H]1CN3)N=C[C@@H]1Cc3ccccc3CN1C2=O [IIa-03] | 460 |  |  | EC50 ([2]; H226 lung cancer cells): 410 pM; EC50 ([3]; OVCAR3 ovarian cancer cells): 180 pM |
| COc1cc2c(cc1OCc1cc(N)cc(COc3cc4c(cc3OC)C(=O)N3Cc5ccccc5C[C@H]3C=N4)c1)N=C[C@@H]1Cc3ccccc3CN1C2=O [IIa-05, (6aS,6a′S)-3,3′-(((5-amino-1,3-phenylene)bis(methylene))bis(oxy))bis(2-methoxy-6a,7-dihydrobenzo[5,6][1,4]diazepino[1,2-b]isoquinolin-14(12H)-one)] | 150 | 150 | 90 |  |
| COc1cc2c(cc1OCc1cccc(COc3cc4c(cc3OC)C(=O)N3Cc5ccccc5C[C@H]3C=N4)c1)N=C[C@@H]1Cc3ccccc3CN1C2=O [IIa-21] | 20 |  |  |  |
| COc1cc2c(cc1OCCCOc1cc3c(cc1OC)C(=O)N1Cc4ccccc4C[C@H]1C=N3)N=C[C@@H]1Cc3ccccc3CN1C2=O [IIa-01] | 16 |  | 150 |  |
| COc1cc2c(cc1OCCCCCOc1cc3c(cc1OC)C(=O)N1Cc4ccccc4C[C@H]1C=N3)N=C[C@@H]1CCCN1C2=O [IIb-01] | 330 | 440 | 220 |  |
| COc1ccc2c(c1)CN1C(=O)c3cc(OC)c(OCCCOc4cc5c(cc4OC)C(=O)N4C=C(c6ccc(N)cc6)C[C@H]4C=N5)cc3N=C[C@@H]1C2 [IIb-03] | 110 | 150 | 330 | IC50 [4]: 0.003 nM; IC50 [5]: 0.002 nM |
| COc1cc2c(cc1OCc1cc(COc3cc4c(cc3OC)C(=O)N3Cc5ccccc5C[C@H]3C=N4)cc(N=[N+]=[N-])c1)N=C[C@@H]1Cc3ccccc3CN1C2=O [IIa-22] | 50 |  |  |  |
| COc1cc2c(cc1OCCNCCOc1cc3c(cc1OC)C(=O)N1Cc4ccccc4C[C@H]1C=N3)N=C[C@@H]1Cc3ccccc3CN1C2=O [IIa-16, (6aS,6a′S)-3,3′-((azanediylbis(ethane-2,1-diyl))bis(oxy))bis(2-methoxy-6a,7-dihydrobenzo[5,6][1,4]diazepino[1,2-b]isoquinolin-14(12H)-one)] |  | 188 |  | IC50 [4]: 0.006 nM; IC50 [5]: 0.005 nM |
